Experiments:
Influenza A virus [1] = assay: Antiviral activity against Amantadine-resistant Influenza A virus (A/WSN/1933 (H1N1)) infected in MDCK cells over expressing ST6Gal I assessed as inhibition of viral replication by plaque assay; assay type: functional, organism-based
Influenza A virus [2] = assay: Antiviral activity against Oseltamivir-resistant Influenza A virus (A/North Carolina/39/2009 (H1N1)) infected in MDCK cells over expressing ST6Gal I assessed as inhibition of viral replication by plaque assay; assay type: functional, organism-based
Influenza A virus [3] = assay: Antiviral activity against Amantadine -resistant Influenza A virus (A/Washington/29/2009 (H1N1)) infected in MDCK cells overexpressing ST6Gal I assessed as inhibition of viral replication by plaque assay; assay type: functional, organism-based
[4] = Selectivity index, ratio of CC50 for MDCK cells to EC50 for Amantadine-resistant Influenza A virus (A/WSN/1933 (H1N1)) infected in MDCK cells; assay type: toxicity, cell-based; conditions: dog, read-out: Ratio CC50/EC50
[5] = Selectivity index, ratio of CC50 for MDCK cells to EC50 for Amantadine-resistant Influenza A virus (A/Washington/29/2009 (H1N1)) infected in MDCK cells; assay type: toxicity, cell-based; conditions: dog, read-out: Ratio CC50/EC50

## Cc1cc(OCc2nnc(SC3CCCC3)n2-c2cccnc2)ccc1-c1ccc(S(C)(=O)=O)cc1
Influenza A virus [1]
  EC50: 30 nM
Influenza A virus [2]
  EC50: 30 nM
Influenza A virus [3]
  EC50: 30 nM
[4]
  selectivity ratio: 50
[5]
  selectivity ratio: 50
